As usually defined, the melting point is the temperature, or range, at which the solid turns liquid. `CCOC(=O)c1c(Cc2cc(Cl)cc(Cl)c2)c(C)nn1CCO` yielded a melting point of 105.8 to 107.5 °C.

For the origin of these results see patent US7141585B2 (dated 2006).
